Experimental data from US4119722A, “Method for control of fungi using 4-halo-5-aryl-1,2,3,-dithiazoles” (Chevron Research Company, priority 1977, dated 1978).

Tests used:
Aspergillus niger = assay: Mycelia Inhibition; assay type: cell-based; details: 25° C., 24 hours
Description: (§1) The compounds of the present invention were evaluated for fungicidal effectiveness by means of a mycelial inhibition test. This test is designed to measure the fungitoxic acitvity of fungicidal chemicals in terms of their degree of inhibition of mycelium growth. Each compound to be tested was dissolved in acetone to 500 ppm concentration. Paper strips were innoculated with the particular mycelium growth by covering the paper with a potato dextrose broth culture of mycelial suspension. The innoculated papers were then placed on potato dextrose agar plates and sprayed by means of a micro sprayer with the fungicidal solution. The treated paper strips were incubated at 25° C. and data is taken after 24 hours. Fungicidal activities are measured by a zone of inhibited mycelial growth from the center of the paper strip. The effectiveness of the compounds tested for fungicidal activity is reported in Table VI in terms of the microgram/cm^2 for 99% control of the fungus.

Botrytis cinerea = assay: Mycelia Inhibition; assay type: cell-based; details: 25° C., 24 hours
Description: as §1

Fusarium moniloforma = assay: Mycelia Inhibition; assay type: cell-based; details: 25° C., 24 hours
Description: as §1

Rhizoctonia solani = assay: Mycelia Inhibition; assay type: cell-based; details: 25° C., 24 hours
Description: as §1

[1] = test system: Crabgrass (Digitaria sanguinalis); assay: Post-emergent herbicidal test; assay type: in vivo; details: post-emergence, 504 h, 33 mcg/cm^2, 3 weeks, scale 0 (no phytotoxicity) to 100 (complete kill), read-out: Herbicidal Effectiveness (C)
Description: (§2) Post-emergent herbicidal tests with representative compounds of this invention were made using the following method.
(§3) An acetone solution of the test compound was prepared by mixing 750 mg of the compound, 220 mg of a nonionic surfactant and 25 ml of acetone. This solution was added to approximately 125 ml of water containing 156 mg of surfactant.
(§4) This test solution was uniformly sprayed on 2 similar pots of 24-day-old plants (approximately 15 to 25 plants per pot) at a dose of 33 mcg/cm^2. After the plants had dried, they were placed in a greenhouse and then watered intermittently at their bases, as needed. The plants were observed periodically for phytotoxic effects and physiological and morphological responses to the treatment. After 3 weeks, the herbicidal effectiveness of the compound was rated based on these observations. A 0-to-100 scale was used, 0 representing no phytotoxicity and 100 representing complete kill.

[2] = test system: Lambsquarter (Chenopodium album); assay: Post-emergent herbicidal test; assay type: in vivo; details: post-emergence, 504 h, 33 mcg/cm^2, 3 weeks, scale 0 (no phytotoxicity) to 100 (complete kill), read-out: Herbicidal Effectiveness (P)
Description: as §2, §3, §4

[3] = test system: Mustard (Brassica arvensis); assay: Post-emergent herbicidal test; assay type: in vivo; details: post-emergence, 504 h, 33 mcg/cm^2, 3 weeks, scale 0 (no phytotoxicity) to 100 (complete kill), read-out: Herbicidal Effectiveness (L)
Description: as §2, §3, §4

[4] = test system: Pigweed (Amaranthus retroflexus); assay: Post-emergent herbicidal test; assay type: in vivo; details: post-emergence, 504 h, 33 mcg/cm^2, 3 weeks, scale 0 (no phytotoxicity) to 100 (complete kill), read-out: Herbicidal Effectiveness
Description: as §2, §3, §4

[5] = test system: Watergrass (Echinochloa Crusgalli); assay: Post-emergent herbicidal test; assay type: in vivo; details: Echinochloa crus-galli, post-emergence, 504 h, 33 mcg/cm^2, 3 weeks, scale 0 (no phytotoxicity) to 100 (complete kill), read-out: Herbicidal Effectiveness (W)
Description: as §2, §3, §4

Wild Oats (Avena fatua) = assay: Post-emergent herbicidal test; assay type: in vivo; details: post-emergence, 504 h, 33 mcg/cm^2, 3 weeks, scale 0 (no phytotoxicity) to 100 (complete kill), read-out: Herbicidal Effectiveness (O)
Description: as §2, §3, §4

[6] = test system: mite eggs (Tetramuchus urticae); assay: Mite control test, mite eggs; assay type: in vivo; details: 40-ppm leaf dip, egg mortality (non-hatching eggs) 7 days after treatment
Description: (§5) Compounds of the invention were tested for the control mites and mite eggs by the following procedure. Pinto bean leaves were invested with two spotted-mites (Tetramuchus urticae). The mites were then allowed to lay eggs on the leaves. After 48 hours, the leaves were dipped into a water/acetone solution containing a small amount of a non-ionic surfactant and 40-ppm of the test compound. The treated leaves were then maintained at 85° F. One day after treatment, the mortality of adult mites was determined, and 7 days after treatment, the egg mortality (non-hatching eggs) was determined.

[7] = test system: two spotted-mites (Tetramuchus urticae); assay: Mite control test, adult mites; assay type: in vivo; details: 40-ppm leaf dip, adult mortality one day after treatment; 1440 min
Description: as §5

Row | SMILES | Mycelia Inhibition, for 99% control (A) (Aspergillus niger) [micrograms/cm^2] | Mycelia Inhibition, for 99% control (B) (Botrytis cinerea) [micrograms/cm^2] | Mycelia Inhibition, for 99% control (F) (Fusarium moniloforma) [micrograms/cm^2] | Mycelia Inhibition, for 99% control (R) (Rhizoctonia solani) [micrograms/cm^2] | pest or weed control at 33 µg/cm2 [1] [%] | pest or weed control at 33 µg/cm2 [2] [%] | pest or weed control at 33 µg/cm2 [3] [%] | pest or weed control at 33 µg/cm2 [4] [%] | pest or weed control at 33 µg/cm2 [5] [%] | pest or weed control at 33 µg/cm2 (Wild Oats (Avena fatua)) [%] | Mite Eggs Control, % [6] [%] | Mite Control, % [7] [%]
1 | Clc1nssc1=Nc1ccccc1 [Compound 1, 4-chloro-5-phenylimino-1,2,3-dithiazole] | > 1.7 | 0.33 | > 1.7 | > 1.7 | 20 | 70 | 80 | 85 | 10 | 0 | – | –
2 | Clc1ccc(N=c2ssnc2Cl)cc1 [Compound 2] | 0.85 | – | 1.5 | 0.33 | 20 | 95 | 95 | 100 | 85 | 15 | – | –
3 | Cc1ccccc1N=c1ssnc1Cl [Compound 7] | 0.98 | > 1.7 | > 1.7 | > 1.7 | 0 | 70 | 60 | 70 | 0 | 0 | – | –
4 | Cc1cccc(C)c1N=c1ssnc1Cl [Compound 10] | – | – | – | – | 0 | 30 | 75 | 60 | 0 | 0 | – | –
5 | Cc1cc(C)c(N=c2ssnc2Cl)c(C)c1 [Compound 11] | > 1.7 | > 1.7 | > 1.7 | 0.98 | – | – | – | – | – | – | – | –
6 | Clc1nssc1=Nc1cccc(Br)c1 [Compound 12] | > 1.7 | > 1.7 | > 1.7 | 1.4 | 30 | 55 | 100 | 85 | 30 | 30 | 78 | –
7 | Clc1ccccc1N=c1ssnc1Cl [Compound 14] | – | – | – | – | 30 | 100 | 100 | 93 | 40 | 0 | 0 | 70
8 | Fc1ccc(N=c2ssnc2Cl)cc1 [Compound 24] | – | – | – | – | 60 | 70 | 100 | 70 | 60 | 40 | – | –
9 | Cc1ccc(N=c2ssnc2Cl)cc1 [Compound 25] | 1.5 | 0.76 | > 1.7 | 0.92 | 35 | 45 | 100 | 90 | 55 | 30 | – | –
10 | Oc1c(Cl)cc(N=c2ssnc2Cl)cc1Cl [Compound 26] | > 1.7 | > 1.7 | > 1.7 | 1.3 | – | – | – | – | – | – | – | –
